Results published in patent US12134769B2, “MicroRNA-198 as a tumor suppressor in ovarian cancer” (Baylor College of Medicine, priority 2011, dated 2024).

How the values were obtained:
[1] = system: AsPC1 cells; test: Migration, modified Boyden chamber assay; type: cell-based, human; conditions: stable miR-198 overexpression in AsPC1 cells, FIG. 14D
Method: (§1) Cell migration was determined with a modified Boyden chamber assay as described previously (Li et al., 2008). For invasion assays, Matrigel basement membrane matrix (BD Biosciences) was used by adding 100 ul of 1 mg/ml Matrigel to the migration chamber inserts prior to plating of the cells (Li et al., 2008, Bharadwaj).

[2] = system: MIA-MSLN cells; test: Migration, modified Boyden chamber assay; type: cell-based, human
Method: as §1

[3] = system: AsPC1 cells; test: Invasion assay across Matrigel; type: cell-based, human; conditions: AsPC1 cells following miR-198 overexpression
Method: as §1
(§2) An invasion assay was performed as described for the migration assay. For invasion, Matrigel basement membrane matrix (BD Biosciences) was used by adding 100 μl of 1 mg/ml Matrigel to the migration chamber inserts prior to plating of the cells.

[4] = system: MIA-MSLN cells; test: Invasion assay across Matrigel; type: cell-based, human; conditions: 36 h after miR-198 precursor transfection
Method: as §1, §2

[5] = system: MIA-MSLN cells; test: Apoptosis assay (TUNEL, caspase 3 western) after TNF-α; type: cell-based, human
Method: Apoptosis induction was determined using western blotting for Caspase 3 cleavage and confirmed by labeling DNA breaks using a terminal deoxynucleotidyltransferase dUTP nick end labeling (TUNEL) assay with the APO-DIRECT Kit (BD Biosciences) following 96 h of treatment (24 h serum starvation followed by 72 h of treatment with 20 ng/ml of TNF-α). Briefly, cells were plated in either 10% FBS media or serum-starved for 96 h, at which time 1×10^6 cells were harvested using trypsin-EDTA. After centrifugation, the pellets were washed twice with PBS, then resuspended in 1% paraformaldehyde in PBS and incubated on ice for 45 minutes. After several washes, the cell pellet again was resuspended in PBS/ethanol, incubated on ice for 30 minutes, and stored at −20° C. Cell samples were then pelleted, washed, and resuspended in 50 μL of DNA labeling solution containing a reaction buffer, terminal deoxynucleotidyl transferase enzyme, FITC-labeled deoxyuridine triphosphate nucleotides, and distilled water. After a 60-minute incubation at 37° C., cells were again washed, pelleted, and resuspended in 500 μl of propidium iodine/RNase staining buffer. Samples were then analyzed by flow cytometry (fluorescence-activated cell sorting) using a FACSCalibur (Becton Dickinson, Franklin Lakes, NJ). Data was further analyzed using the software FLOWJOW ver. 6.1.1 (Tree Star Inc.).

[6] = system: MSLN CDS; test: Dual-luciferase reporter assay, MSLN CDS constructs; type: cell-based, human; conditions: in the presence of miR-198
Source text: For MSLN, six constructs were generated: 400 or 600 bp segments containing the WT sequence or specific 3-nucleotide mutations in the seed region of each miR-198 binding site were synthesized by GenScript and subcloned into the pEZX-MT01 3′UTR construct from Genecopoeia at Xba1 and BamH1 restriction sites such that they were inserted after the luciferase gene (FIG. 10). The same process was used for the VCP reporter constructs containing the full-length VCP 3′UTR (FIG. 10).
Dual luciferase assays were performed according to the manufacturer's instruction. Luciferase expression analysis was performed at 24 h using the Dual-luciferase kit (Promega) and Sirius Luminometer (Berthold Detection System). Results are presented as the ratio of firefly to Renilla luciferase activities, normalized to controls.

[7] = system: AsPC1 cells; test: Monolayer wound healing assay; type: cell-based, human; conditions: miR-198 overexpressed, all serum conditions tested
Source text: (§3) For wound healing assay, wounds were created in confluent monolayer of cells with a sterile pipette tip in either 0%, 0.2%, 2%, or 5% FBS media, and wound healing was observed within the scrape line at different time points; representative fields for each cell line were photographed (Li et al., 2008, Bharadwaj).

[8] = system: MIA-MSLN cells; test: Monolayer wound healing assay; type: cell-based, human; conditions: miR-198 overexpressed, all serum conditions tested
Source text: as §3

[9] = system: MIA-MSLN cells; test: Orthotopic pancreatic cancer mouse model; type: in vivo, nude mice
Method: All animal procedures were conducted under the guidelines approved by the Institutional Animal Care and Use Committee (IACUC). Cells (3×10^6) were inoculated into the right flank (s.c. model) or into the pancreas (orthotopic model) of 5 to 6-week-old male nude mice (NCI-Charles River) as previously described (Li et al., 2007). Tumor size was measured using a digital caliper and tumor volume was determined with the following formula: tumor volume (mm^3)=[length (mm)]×[width (mm)]2×0.52. For the orthotopic model, after 4 weeks all surviving mice were euthanized and evaluated macroscopically for the presence of orthotopic tumor and metastases in the abdominal cavity. Tumor spread was further visualized using a fluorescent filter to view GFP expression. The tumor nodules were explanted, counted, and weighed. Tumor tissues were stored in RNAse Later solution (Ambion) in −80° for subsequent RNA/miRNA isolation and analysis.

[10] = system: COS-7 cells; test: Co-transfection with MSLN ORF construct, western blot; type: cell-based; conditions: COS-7 cells co-transfected with WT MSLN plasmid and miR-198 precursors
Source text: A MSLN ORF clone was purchased from Origene (RC202532). Site-directed mutagenesis was used to generate constructs containing silent mutations in each of the three predicted miR-198 binding sites within the CDS of the MSLN gene (FIG. 13). MiR-198 precursors or a scrambled miRNA control were co-transfected into COS-7 cells along with either the WT MSLN ORF construct or each of the single, double, or triple mutants. Cell lysates were collected for western blot analysis. RNA and miRNA were collected for real-time RT-PCR analysis.

Question: How did the migration reduced [1] turn out when “miR-198: microRNA-198, SEQ ID NO: 1 gguccagaggggagauagg; used as transfected precursors (Ambion) or Lenti-miR stable overexpression (GGUCCAGAGGGGAGAUAGG; listed as RNA, chemistry not given here; listed as Homo sapiens)” was run?
Answer: 33%

Question: And the migration reduced ([1]; listed as MiR-198)?
Answer: > 50%

Question: And the migration reduced ([2]; 36 h after transient miR-198 transfection)?
Answer: 44%

Question: What about the migration reduced ([2]; stable miR-198 overexpression, after 48 h) of the same substance?
Answer: ~40%

Question: What about the invasion decreased [3] of the same substance?
Answer: ~50%

Question: What about the invasion reduced [4] of the same substance?
Answer: 24%

Question: And the “increase in number of cells undergoing apoptosis over controls” value ([5]; MIA-MSLN-miR-198 cells, TUNEL after TNF-α treatment)?
Answer: > 60%

Question: What about the “caspase 3 cleavage” value ([5]; overexpression of miR-198 in MIA-MSLN cells, western blot) of the same substance?
Answer: results in caspase 3 cleavage

Question: And the “decrease in firefly luciferase expression, MSLN CDS site 2 WT construct” value [6]?
Answer: almost completely

Question: And the “decrease in firefly luciferase expression, MSLN CDS site 3 WT construct” value [6]?
Answer: ~70%

Question: What about the “decrease in firefly luciferase expression, MSLN CDS site 1 construct” value ([6]; not statistically significant) of the same substance?
Answer: slight reduction

Question: What about the wound closure rate [7] of the same substance?
Answer: reduced wound closure rate

Question: And the wound closure rate [8]?
Answer: reduced wound closure rate

Question: What about the “average primary tumor weight” value ([9]; orthotopic MIA-MSLN-miR-198 cells, after 4 weeks) of the same substance?
Answer: 0.06 g

Question: What about the metastases ([9]; orthotopic MIA-MSLN-miR-198 injected mice, 8 mice) of the same substance?
Answer: Four of the eight mice had no metastases

Question: What about the “jaundice, weight loss, and abdominal ascitic fluid” value ([9]; orthotopic, mice injected with high miR-198 cells) of the same substance?
Answer: none of the mice injected with high miR-198 cells had these symptoms

Question: And the “expression of WT MSLN protein” value [10]?
Answer: abolished expression of the WT MSLN protein
